{"source": "patent US20220259164A1", "about": "“USE OF AMINOTHIOL COMPOUNDS AS CEREBRAL NERVE OR HEART PROTECTIVE AGENT” (SHANGHAI KECHOW PHARMA, INC., priority 2019, published 2022)", "key": {"[1]": {"tested_on": "bleomycin (BLM)-induced scleroderma mouse model", "experiment": "H2O2 level in skin lesion, BLM-induced scleroderma mouse model", "assay_type": "in vivo, mice", "conditions": "compound A (hydrochloride) 600 mg/kg/d by gavage or compound B (trifluoroacetate) 200 mg/kg/d i.p., 28 days with BLM", "text": "(§1) Materials: C57BL/6 female mice, weighing 20-25 g, were purchased from Shanghai SLAC Laboratory Animal Co., Ltd. Using a random number table method, 24 mice were divided into a blank control group (1), a scleroderma model group (2), a scleroderma+compound A treatment group (3), and a scleroderma+compound B treatment group (4), with 6 mice in each group. Bleomycin (BLM) was purchased from Sigma. An H-E staining kit was purchased from Beijing Solarbio Science & Technology Co., Ltd. Compound A used in this example was in the form of a hydrochloride thereof, and compound B was in the form of a trifluoroacetate thereof.\n(§2) Method: The intended injection site (area 1 cm^2) of the mice was shaved using an electric shaver. […] Conventional iodine tincture was used to disinfect the back skin of the mice, and a local diseased skin tissue was surgically cut, fixed in 4% paraformaldehyde, embedded in paraffin, sectioned, and analyzed by H-E staining. […]\n(§3) Method: Part of the skin lesion tissue of the mice was taken, and the contents of hydroxyproline and hydrogen peroxide in the skin lesion region were detected according to the requirements in the kit instructions."}, "[2]": {"tested_on": "bleomycin (BLM)-induced scleroderma mouse model", "experiment": "Hydroxyproline level in skin lesion, BLM-induced scleroderma mouse model", "assay_type": "in vivo, mice", "conditions": "compound A (hydrochloride) 600 mg/kg/d by gavage or compound B (trifluoroacetate) 200 mg/kg/d i.p., 28 days with BLM", "text": "as §1, §2, §3"}, "[3]": {"tested_on": "radiation lung injury in C57 male mice", "experiment": "Protective effect on radiation lung injury (HE staining of lung)", "assay_type": "in vivo", "conditions": "517 mpk i.p. 30 min before 17 Gy right lung irradiation; months 2, 4, 6", "method": "C57 male mice were randomly divided into 4 groups, namely a blank control group, an irradiation group, a compound B (TFA) irradiation group, and an AMI irradiation group, respectively. The mode of administration for each group was an intraperitoneal injection, 30 min before irradiation. The dosage of administration was 517 mpk, and the irradiation dose to the right lung was 17 Gy. […] Lung tissues were taken at months 2, 4, and 6 for HE staining"}, "[4]": {"tested_on": "radiation intestinal injury in C57 male mice", "experiment": "Protective effect on radiation intestinal injury (HE staining of small intestine)", "assay_type": "in vivo", "conditions": "517 mpk i.p. 30 min before 16 Gy abdominal irradiation; fifth day", "method": "C57 male mice were randomly divided into 4 groups, namely a blank control group, an irradiation group, a compound B (TFA) irradiation group, and an AMI irradiation group, respectively. The mode of administration for each group was an intraperitoneal injection, 30 min before irradiation. The dosage of administration was 517 mpk, and the abdominal irradiation dose was 16 Gy. On the fifth day, the small intestine tissue was taken for HE staining."}, "[5]": {"tested_on": "radiation-induced hematopoietic system injury in C57 male mice", "experiment": "Protective effect on radiation-induced hematopoietic system injury (peripheral blood indicators)", "assay_type": "in vivo", "conditions": "517 mpk i.p. 30 min before 4 Gy whole body irradiation; day 15", "method": "C57 male mice were randomly divided into 6 groups, namely a blank control group, an irradiation group, a compound B (TFA) group, an AMI group, a compound B (TFA) irradiation group, and an AMI irradiation group, respectively. The mode of administration for each group was an intraperitoneal injection, 30 min before irradiation. The dosage of administration was 517 mpk, and the whole body irradiation dose was 4 Gy. On day 15, samples were taken for detecting peripheral blood indicators."}}, "note": "Where a SMILES comes first, the peptide text is derived from it. [ ]: non-standard residue; d: D form. NMeC = CN[C@@H](CS)C(=O)O"}
{"compound": "CNC(=O)[C@H](CS)NC(=O)[C@H](CS)NC", "note": "[Compound A, (R)-3-mercapto-N—((R)-3-mercapto-1-(methylamino)-1-oxoprop-2-yl)-2-(methylamino)propionamide] (H-[NMeC]-Cys-NHMe)", "values": [{"measurement": "Concentration of H2O2 in the skin", "setting": "[1]", "result": "reduced"}, {"measurement": "Level of hydroxyproline in the skin lesion site", "setting": "[2]", "result": "down-regulated"}]}
{"compound": "CNC(=O)[C@H](CS)NC(=O)[C@H](CS)NC(=O)[C@H](CS)NC", "note": "[Compound B, (R)-3-mercapto-N—((R)-3-mercapto-1-(((R)-3-mercapto-1-(methylamino)-1-oxoprop-2-yl)amino)-1-oxoprop-2-yl)-2-(methylamino)propionamide] (H-[NMeC]-Cys-Cys-NHMe)", "values": [{"measurement": "Concentration of H2O2 in the skin", "setting": "[1]", "result": "reduced"}, {"measurement": "Inflammatory cell infiltration / radiation pneumonitis in lung (HE staining)", "setting": "[3]", "result": "could partially relieve the inflammatory cell infiltration and reduce the occurrence of radiation pneumonitis"}, {"measurement": "Level of hydroxyproline in the skin lesion site", "setting": "[2]", "result": "down-regulated"}, {"measurement": "Changes in the intestinal villi structure (HE staining)", "setting": "[4]", "result": "milder than that in the irradiation group"}, {"measurement": "LY % and NE % in the peripheral blood (abnormal differentiation)", "setting": "[5]", "result": "could alleviate this abnormal differentiation"}, {"measurement": "Numbers of WBC, RBC and PLT in the peripheral blood", "setting": "[5]", "result": "could increase the numbers of such cells after irradiation"}]}
